The conditions of data set [1]: cited from earlier work; for Odor Detection Threshold: Table 24, Floral fragrance; for exp ODT water: Booleans database.
Data set [2] in a line: GC-MS headspace release profile of perfume in shampoo, 1/100 dilution in water. Conditions: Tropical Fruit Perfume. In kind it is physicochemical. On the procedure:
Experimental Procedure: Individual odorant to be tested was added to 20 g of shampoo formulation (see formula below in Table 4) at 0.1%.
A 10 gram sample of formulation and fragrance was added to an empty 1000 ml pyrex beaker. This beaker was then filled with 1000 ml of 120 F tap water. Beaker with diluted shampoo sample was then immediately placed into a semi-enclosed plexiglass chamber.
Headspace Sampling: Once beaker was placed into chamber a Carboxan SPME field fiber was held at the top-side opening of the chamber over the beaker containing the sample. […] […] Top of plexiglass chamber was held open for entire 5 minutes of headspace sampling.

Values joined by “and” are separate entries in the source; they are usually repeats but may differ in a detail not shown here. Equal values may be shown once. Read-outs that look alike come from different tables or passages of the source.

`CC(=O)OC1CC2CC1C1CC=CC21` (stereo not drawn): in data set [1], the “Odor Detection Threshold” value is reported as 50 ppb or less.

On to `C=CC(C)(O)CCC=C(C)CC` (mixture of isomers) [ETHYL LINALOOL], for which the “GC Abundance” value in data set [2] (20 seconds) is reported as 5000; in data set [2] (30 seconds), 10000; in data set [2] (40 seconds), 10000; in data set [2] (50 seconds), 10000.

Regarding `CC=Cc1ccc(O)c(OC)c1` [1-Hydroxy-2-methoxy-4-propenylbenzene], in data set [1], the “exp ODT water” value is reported as 30-40 ppb.

In the case of `CCCCCCCC=O` [1-Octanal], the “exp ODT water” value in data set [1] was 30 ppb.

As for `Cc1ccc(C(C)C)c(O)c1` [5-Methyl-2-isopropylphenol], the “exp ODT water” value in data set [1] was 400 ppb.

With `CC(C)=CCCC(C)CCCC(C)C=O` (stereo not drawn) [ADOXAL, 2,6,10-Trimethyl-9-undecenal], the “GC Abundance” value in data set [2] (40 seconds) was found to be 300; in data set [2] (50 seconds) it was 3000.

Regarding `CCCCCC1CCC(=O)O1` (stereo not drawn) [ALDEHYDE C-18], the “GC Abundance” value in data set [2] (20 seconds) worked out at 2000; in data set [2] (30 seconds), 2000; in data set [2] (40 seconds), 4000; in data set [2] (50 seconds), 4000.

On to `C=CCOC(=O)CCC1CCCCC1` [ALLYL CYCLOHEXYL PROPIONATE], for which the “GC Abundance” value was determined as 7000 in data set [2] (40 seconds) and 10000 in data set [2] (50 seconds).

As for `C=CCOC(=O)CCCCCC` [ALLYL HEPTOATE], the “GC Abundance” value in data set [2] (20 seconds) stood at 4000; in data set [2] (30 seconds), 10000; in data set [2] (40 seconds) it was 12000; in data set [2] (50 seconds), 12000.

`CC1(C)CCC[C@]2(C)[C@H]3CCO[C@]3(C)CC[C@@H]12` [AMBROXAN]: the “GC Abundance” value in data set [2] (50 seconds) was found to be 1000.

`CC/C(=C\CC1CC=C(C)C1(C)C)CO` (stereo not drawn) [BACDANOL]: the “GC Abundance” value is given as 100 in data set [2] (40 seconds) and 5000 in data set [2] (50 seconds).

Regarding `CC(=O)OCc1ccccc1` [BENZYL ACETATE], the “GC Abundance” value is 12000 in data set [2] (20 seconds), 17000 in data set [2] (30 seconds), 18000 in data set [2] (40 seconds) and 18000 in data set [2] (50 seconds).

Consider `OCc1ccccc1` [BENZYL ALCOHOL], for which the “GC Abundance” value in data set [2] (40 seconds) came out at 50; in data set [2] (50 seconds) it was 100.

As for `CCC(=O)OCc1ccccc1` [BENZYL PROPIONATE], the “GC Abundance” value was determined as 2000 in data set [2] (20 seconds), 6000 in data set [2] (30 seconds), 6000 in data set [2] (40 seconds) and 6000 in data set [2] (50 seconds).

As for `C/C=C/C(=O)C1=C(C)CCCC1(C)C` [BETA DAMASCONE FAB, β-damascone], in data set [1], the “Odor Detection Threshold” value is 50 ppb or less. Also, the ODT in data set [1] (Table 30, berry note) is 50 ppb or less.

For `CCCCOC(C)=O` [Butyl acetate], the “exp ODT water” value in data set [1] was 44-88 ppb.

For `Cc1ccc2c(c1)OCC(=O)CO2` [CALONE], the “GC Abundance” value in data set [2] (50 seconds) worked out at 1000.

As to `CC/C=C\CCO` [CIS-3-HEXEN-1-OL], the “GC Abundance” value in data set [2] (20 seconds), in data set [2] (30 seconds), in data set [2] (40 seconds) and in data set [2] (50 seconds) was 14000 each time.

For `CC/C=C\CCOC(C)=O` [CIS-3-HEXENYL ACETATE], the “GC Abundance” value in data set [2] (20 seconds) is 5000; in data set [2] (30 seconds) it was 14000; in data set [2] (40 seconds), 14000; in data set [2] (50 seconds), 14000.

With `CC(C)=CCCC(C)CCO` (stereo not drawn) [CITRONELLOL AJ, FCC, CITRONELLOL], the “GC Abundance” value in data set [2] (20 seconds), in data set [2] (30 seconds), in data set [2] (40 seconds) and in data set [2] (50 seconds) was 7000 each time.

For the compound `CC=CC(=O)C1=C(C)C=CCC1(C)C` [DAMASCENONE, 1-(2,6,6-Trimethylcyclohexa-1,3-dienyl)-2-buten-1-one], the “GC Abundance” value in data set [2] (50 seconds) is 1000. Also, in data set [1], the “exp ODT water” value was 0.002 ppb.

As to `CCC(C)(O)CCC=C(C)C` (stereo not drawn) [DIHYDROLINALOOL], the “GC Abundance” value in data set [2] (20 seconds), in data set [2] (30 seconds), in data set [2] (40 seconds) and in data set [2] (50 seconds) was 3000 each time.

With `C=CC(C)CCCC(C)(C)O` (stereo not drawn) [DIHYDROMYRCENOL], the “GC Abundance” value in data set [2] (10 seconds) was found to be 500; in data set [2] (20 seconds), 15000; in data set [2] (30 seconds), 15000; in data set [2] (40 seconds) it was 15000; in data set [2] (50 seconds), 15000.

For `CC(=O)OC(C)(C)Cc1ccccc1` [DIMETHYL BENZYL CARBINYL ACETATE], the “GC Abundance” value in data set [2] (30 seconds) was determined as 2000; in data set [2] (40 seconds), 8000; in data set [2] (50 seconds), 8000.

On to `CCCC(=O)OCC` [ETHYL BUTYRATE, Ethyl butyrate], for which the “GC Abundance” value in data set [2] (10 seconds) is given as 2800; in data set [2] (20 seconds), 2800; in data set [2] (30 seconds) it was 2800; in data set [2] (40 seconds) it was 2000; in data set [2] (50 seconds), 800. Besides, the “exp ODT water” value in data set [1] is listed as 1 ppb.

With `CCOC(=O)C1OC1c1ccccc1` (stereo not drawn) [ETHYL PHENYL GLYCIDATE], the ODT in data set [1] (Table 30, berry note) is listed as 50 ppb or less.

Take `O=C1CCCCCCCCCCCC(=O)OCCO1` [ETHYLENE BRASSYLATE]: the “GC Abundance” value in data set [2] (50 seconds) turned out to be 20.

Consider `O=C1CCCCCCCCCCCCCCO1` [EXALTOLIDE TOTAL], for which the “GC Abundance” value in data set [2] (50 seconds) is listed as 50.

As to `CCOC(=O)C1OC1(C)c1ccccc1` (stereo not drawn) [Ethyl 2,3-epoxy-3-methyl-3-phenylpropionate], the “exp ODT water” value in data set [1] was 25 ppb.

Regarding `CC(C)c1cccc(C(C)CC=O)c1` (stereo not drawn) [FLORHYDRAL], the figures for the “GC Abundance” value in data set [2] (40 seconds) and in data set [2] (50 seconds) were 9000 and 10000, respectively. The “Odor Detection Threshold” value in data set [1] is listed as 50 ppb or less.

Regarding `CC(C)CC1CC(C)(O)CCO1` (stereo not drawn) [FLOROL], the “GC Abundance” value in data set [2] (40 seconds) is 10000; in data set [2] (50 seconds), 15000.

`CCOC(=O)CC1(C)OCCO1` [FRUCTONE]: the “GC Abundance” value in data set [2] (20 seconds) was found to be 3000; in data set [2] (30 seconds), 5000; in data set [2] (40 seconds), 5000; in data set [2] (50 seconds), 5000. Further, in data set [1] (Table 17, apple note compounds), the ODT was 50 ppb or less.

As to `CCCCCCC1CCC(=O)O1` (stereo not drawn) [GAMMA-DECALACTONE, 5-Hexyldihydro-2(3H)-furanone], the “GC Abundance” value in data set [2] (40 seconds) is given as 4000; in data set [2] (50 seconds), 7000.

For the compound `CCCCCC1C(=O)CCC1CC(=O)OC` (stereo not drawn) [HEDIONE], in data set [2] (50 seconds), the “GC Abundance” value is on record as 4000. The “Odor Detection Threshold” value in data set [1] was 50 ppb or less.

For `CC(C=O)Cc1ccc2c(c1)OCO2` (stereo not drawn) [HELIONAL], the “GC Abundance” value is reported as 500 in data set [2] (40 seconds) and 5000 in data set [2] (50 seconds).

In the case of `CCCCCCC(C=O)=Cc1ccccc1` [HEXYL CINNAMIC ALDEHYDE, hexyl cinnamic aldehyde], the “GC Abundance” value in data set [2] (40 seconds) amounted to 2000; in data set [2] (50 seconds) it was 9000.

For the compound `C=C(C)C1CC=C(C)C(=O)C1` (stereo not drawn) [I-1-Methyl-4-isopropenyl-6-cyclohexen-2-one], the “exp ODT water” value in data set [1] is listed as 50 ppb.

With `CC(=O)/C=C/C1C(C)=CCCC1(C)C` (stereo not drawn) [IONONE ALPHA, alpha ionone], the “exp ODT water” value in data set [1] was 0.4-10 ppb.

As to `CC/C=C\CCOC(=O)OC` [LIFFAROME], the “GC Abundance” value in data set [2] (20 seconds), in data set [2] (30 seconds), in data set [2] (40 seconds) and in data set [2] (50 seconds) was 3000 throughout.

`CC1OC(C)C2Cc3ccccc3C2O1` (stereo not drawn) [MAGNOLAN/CORPS 719]: the “GC Abundance” value in data set [2] (40 seconds) is given as 1000; in data set [2] (50 seconds) it was 3000.

In the case of `CCCCCCCCCC=CC=O` [MANDARIN ALDEHYDE], the ODT in data set [1] (Table 32, citrus note) is recorded as 50 ppb or less.

As for `CC(C)=CCCC(C)C=O` (stereo not drawn) [MELONAL, 2,6-Dimethyl-5-heptenal], in data set [1], the “exp ODT water” value is reported as 16 ppb and the “odor detection threshold values in water” value is on record as 16 ppb. In addition, the ODT in data set [1] (Table 26, cucumber-melon note) is 50 ppb or less.

On to `COC(=O)c1ccccc1N` [METHYL AN[…], METHYL ANTHRANILATE], for which the “Odor Detection Threshold” value in data set [1] is recorded as 50 ppb or less.

Consider `COC(=O)c1c(C)cc(O)c(C)c1O` [METHYL ATRATATE], for which the “GC Abundance” value in data set [2] (50 seconds) was found to be 50.

For the compound `CCCCCOC(C)=O` [Pentyl Acetate], the “exp ODT water” value in data set [1] is recorded as 43 ppb.

In the case of `CCCCCOC(=O)CCC` [Pentyl butyrate], the “exp ODT water” value in data set [1] is reported as 44-87 ppb.

As to `CC1=CCC(CCC(C)C(C)O)C1(C)C` (stereo not drawn) [SANDALORE], the “GC Abundance” value in data set [2] (50 seconds) stood at 2000.

For the compound `CC1=C(O)C(=O)C(C)O1` (stereo not drawn) [STRAWBERRY FURANONE], in data set [1] (Table 30, berry note), the ODT is 50 ppb or less.

In the case of `CC(=O)OC(C)(C)C1CC=C(C)CC1` (stereo not drawn) [TERPINYL ACETATE], the results for the “GC Abundance” value in data set [2] (30 seconds), in data set [2] (40 seconds) and in data set [2] (50 seconds) were 1000, 9000 and 9000, respectively.

For `CC1=CC(C)C(C=O)CC1` (stereo not drawn) [TRIPLAL], the “GC Abundance” value in data set [2] (10 seconds) is 1000; in data set [2] (20 seconds), 14000; in data set [2] (30 seconds), 14000; in data set [2] (40 seconds) it was 10000; in data set [2] (50 seconds), 6000.

For `CCC=C(C)C(O)CCCCC` (stereo not drawn) [UNDECAVERTOL, 4-Methyl-3-decen-5-ol], the “GC Abundance” value in data set [2] (40 seconds) and in data set [2] (50 seconds) was 10000 each time.

For the compound `COc1cc(C=O)ccc1O` [VANILLIN NF, 4-Hydroxy-3-methoxybenzaldehyde], the “exp ODT water” value in data set [1] is 25-58 ppb and 20-200 ppb.

On to `CC(=O)OC1CCC(C(C)(C)C)CC1` (stereo not drawn) [VERTENEX HC], for which the entries for the “GC Abundance” value in data set [2] (30 seconds), in data set [2] (40 seconds) and in data set [2] (50 seconds) were 2000, 8000 and 10000, respectively.

`CCC(=O)OC/C=C(\C)CCC=C(C)C` [trans-3,7-Dimethyl-2,6-octadien-1-yl propanoate]: the “exp ODT water” value in data set [1] is 10 ppb.

Turning to `C/C=C/C(=O)C1C(C)C=CCC1(C)C` (stereo not drawn) [δ-DAMASCONE], the ODT in data set [1] (Table 28, fig note) is recorded as 50 ppb or less.

With VERTOFIX COEUR, the “GC Abundance” value in data set [2] (50 seconds) is 50.

The record behind these values is patent US7517840B2, “Optimized perfumery for rinse-off products” (Givaudan Fragrances Corporation, priority 2005, dated 2009).
